Results on four compounds are retold here after patent publication US10285962B2, “Glutarate compounds for treating ischemia-reperfusion injuries” (The Regents of the University of California, priority 2016, dated 2019).

For series [1], the system named is myocardial infarct size in IR injury. Further details: protection against IR injury (TTC stained cross-sections): dose or concentration left out as unconfirmed. The note with it: for protection against IR injury (TTC stained cross-sections): single IV bolus at reperfusion.
For series [2], the target named is heart ATP synthase (complex V) (Mus musculus, UniProt P56480). Nature of the series: respiration of mitochondria isolated from mouse heart (ATP synthase / complex V inhibition).
In series [3] the test system is electron flow through the ETC (Complex I, II, IV). Nature of the series: electron flow through the ETC, OCR of isolated mouse heart mitochondria. Type of series: biochemical.

In the case of `CC[C@H]1/C=C/C=C/C[C@@H](C)[C@H](O)[C@@](C)(O)C(=O)[C@@H](C)[C@H](O)[C@@H](C)C(=O)[C@@H](C)[C@H](O)[C@@H](C)/C=C/C(=O)O[C@@H]2[C@H](C)[C@H](CC1)O[C@]1(CC[C@H](C)[C@H](C[C@@H](C)O)O1)[C@H]2C` [oligomycin], in series [1] (5 μM, administered at the time of reperfusion), the toxicity entry is given as “toxic”. The myocardial infarct size result in series [1] (lower doses (e.g., 10 nM) given at reperfusion) is “significantly reduce myocardial infarct size”.

Consider `O=C(O)CCC(=O)C(=O)O` [α-KG, α-ketoglutarate], for which the “reduction of infarct size” value in series [1] (mouse, in vivo) is “about 70%”. In addition, the “protection in the presence of the HIF-1 inhibitor echinomycin” value in series [1] (mouse, in vivo, iv) was “fully protective”. Also, in series [2] ([…]), the “complex V activity” value is on record as “inhibits”. In series [2] (initiated by 2 mM ADP), the “state 3 respiration” value is reported as “decreases”. Further, the “electron flow through the ETC” value in series [3] (isolated mouse heart mitochondria) was “does not affect”. In series [3] (sequential rotenone, succinate, antimycin A, TMPD), the “Complex I, Complex II, or Complex IV respiration” value was “No difference”.

Turning to `O=C(O)CCC(=O)O` [succinate], in series [1], the “protection against IR injury (TTC stained cross-sections)” value is “does not”.

With `CC(C)(COP(=O)(O)OP(=O)(O)OC[C@H]1O[C@@H](n2cnc3c(N)ncnc32)[C@H](O)[C@@H]1OP(=O)(O)O)[C@@H](O)C(=O)NCCC(=O)NCCSC(=O)CCC(=O)O` [succinyl-CoA], the “protection against IR injury (TTC stained cross-sections)” value in series [1] is given as “significant protection”.
